Activity calls are given as the source filed them. The calls are words filed in the database; no cut-off is given here.
Tests used:
[1] = biological target: Heat shock protein HSP90 (Homo sapiens) (UniProt P07900+P08238); experiment: Inhibition of Hsp90 assessed by degradation of client proteins Her2 and Akt; format: protein assay
MCF7 = experiment: Antiproliferative activity against human MCF7 cells; format: functional, cell-based

- Activity [1]: Active
- IC50 (MCF7): 1200 nM
SMILES: COc1c(O)cc2c(O)c1CC(C)OC(=O)c1c(O)cc(O)c(Cl)c1CCC(=O)N2 (configuration not stated) [RADANAMYCIN]

Reference: ChEMBL document CHEMBL1146976, “Radanamycin, a macrocyclic chimera of radicicol and geldanamycin” (Bioorg Med Chem Lett, 2006)
